Measurements: BigSolDB 2.1

O=C1NS(=O)(=O)c2ccccc21
solubility (mole fraction)
Settings	293.15 K	298.15 K	303.15 K	308.15 K	313.15 K	318.15 K	323.15 K
in acetonitrile	0.00739	0.00809	0.00936	0.0105	0.012	0.0143	0.0157
in ethanol	0.00821	0.00924	0.0108	0.0121	0.0144	0.0169	0.0196
in isopropanol	0.00792	0.00942	0.011	0.013	0.016	0.0193	0.0231
in methanol	0.00927	0.0102	0.012	0.0136	0.0161	0.0187	0.0218
